Where a name gives a salt, the structure may show the parent alone. Read-outs that look alike come from different tables or passages of the source.
System: Aβ40
Experiment: Screen of NIH clinical collection compounds for reduction of Aβ40 in Tg2576 mES cell derived neurons (Aβ40 ELISA)
Type: cell-based, mouse
Design: Percent Inhibition: concentration or dose not given beside the values
Settings: for Percent Inhibition: Aβ40 in conditioned media vs DMSO control, neurons treated on day 8 after plating for 24 hours
Experimental: In certain embodiments, the inhibitor of the present invention is identified by an assay directed to detecting inhibitors of Aβ40 production. For example, but not by way of limitation, such assays can include assays such as those prepared as follows. First, mouse ES cells isolated from Tg2576 mice are subjected to directed differentiation as previously described. After dissociation of embryoid bodies, neurons are plated in poly-D-lysine and laminin coated 96 well black plates at a density of 1.5×10^5 cells/cm2 which is 45,000 cells/well. Media is changed to N2 containing media after 4 hours and again the next day after plating. Two days after plating, media is changed to B27 containing media which is replaced every 2 days after that. On day 8 after plating the mouse ES derived neurons are treated with the compound of interest. […] In certain embodiments the compounds are incubated with the cells for 24 hours in 150 μl B27 media. In certain embodiments each plate of ES derived neurons is treated with NCC compounds, DMSO (negative control), and the positive controls for Aβ reduction BACE inhibitor IV (Calbiochem) and Compound E. After 24 hours, 100 μl conditioned media can then be removed and frozen at −80° C. until further analysis for Aβ40 content. The remaining cells in 50 μl media can be subjected to cell viability assay CellQuanti Blue (BioAssay Systems). In certain embodiments, conditioned media can be subjected to Aβ40 quantification, e.g., by using Aβ40 ELISA (Invitrogen).
Mouse ES cells isolated from. Tg2576 mice were subjected to directed differentiation as previously described. After dissociation of embryoid bodies, neurons were plated in poly-D-lysine and laminin coated 96 well black plates at a density of 1.5×10^5 cells/cm2 which is 45,000 cells/well. Media was changed to N2 containing media after 4 hours and again the next day after plating. Two days after plating, media was changed to B27 containing media which was replaced every 2 days after that. […] Each plate of ES derived neurons was treated with NCC compounds, DMSO (negative control), and the positive controls for Aβ reduction BACE inhibitor IV (Calbiochem) and Compound E. After 24 hours, 100 μl conditioned media was removed and frozen at −80° C. until further analysis for Aβ40 content. The remaining cells in 50 μl media were subjected to cell viability assay CellQuanti Blue (BioAssay Systems). Conditioned media was subjected to Aβ40 quantification using Aβ40 ELISA (Invitrogen). Compounds which lowered Aβ40 levels in the conditioned media were identified as hits if they reduced Aβ40 by 4 standard deviations of the negative control (DMSO) but maintained cell viability. Cell viability was defined by CellQuanti Blue fluorescent signal maintained within two standard deviations of fluorescent signal from the control treated (DMSO) cells. High potency hits were defined by reducing Aβ40 40% or more (signal 60% of DMSO control).
Hits were defined as lowering Aβ by 4 standard deviations below the negative control (DMSO) treated condition but maintaining cell viability within 2 standard deviations of control.

| Compound | Percent Inhibition | IC50 (Aβ40 lowering, high priority hits confirmed from independent compound sources, read-out: IC50) | IC50 (Mus musculus, Neuron) |
| --- | --- | --- | --- |
| C=CC1=C(C(=O)O)N2C(=O)[C@@H](NC(=O)/C(=N\OCC(=O)O)c3csc(N)n3)[C@H]2SC1 [cefixime] | 19% | – | – |
| O=C(NCCN1CCOCC1)c1ccc(Cl)cc1 [4-chloro-n-(2-morpholin-4-yl-ethyl)-benzamide] | 21% | – | – |
| COc1cc(OC)c(C(=O)CCCN2CCCC2)c(OC)c1 [buflomedil] | 13% | – | – |
| Cl.Nc1c2c(nc3c1CCC3)CCCC2 [amiridine, cyclopenta[b]quinolin-9-amine, 2,3,5,6,7,8-hexahydro-,monohydrochloride] | 40% | 2.3 µM | – |
| COc1ccc(-c2oc3c(CC=C(C)C)c(O[C@@H]4O[C@H](CO)[C@@H](O)[C@H](O)[C@H]4O)cc(O)c3c(=O)c2O[C@@H]2O[C@@H](C)[C@H](O)[C@@H](O)[C@H]2O)cc1 [icariin] | 53% | – | 5.1 µM |
| CN1C(=O)CN=C(c2ccccc2)c2cc(Cl)ccc21 [diazepam] | 11% | – | – |
| Oc1ccc2c3c1O[C@H]1c4[nH]c5ccccc5c4C[C@@]4(O)[C@@H](C2)N(CC2CC2)CC[C@]314 [naltrindole] | 66% | – | – |
| CN(C)CCc1c[nH]c2ccc(Cn3cncn3)cc12 [rizatriptan benzoate] | 10% | – | – |
| CC[C@H]1OC(=O)[C@H](C)[C@@H](O[C@H]2C[C@@](C)(OC)[C@@H](O)[C@H](C)O2)[C@H](C)[C@@H](O[C@@H]2O[C@H](C)C[C@H](N(C)C)[C@H]2O)[C@](C)(OC)C[C@@H](C)C(=O)[C@H](C)[C@@H](O)[C@]1(C)O [clarithromycin] | 22% | – | – |
| O[C@@H]1CCCC[C@H]1N1CCC(c2ccccc2)CC1 [vesamicol hcl] | 52% | – | – |
| C[N+]1(C)CCN(c2ccccc2)CC1.[I-] [1,1,-dimethyl-4-phenylpiperazinium iodide] | 9% | – | – |
| COc1cc(-c2ccc(=O)[nH]n2)ccc1OC(F)F [pyridazinone, 6-[4-difluoromethoxy)-3-methoxyphenyl]] | 50% | – | – |
| Cc1ncc([N+](=O)[O-])n1CC(O)CCl (stereo not drawn) [orinidazole] | 9% | – | – |
| C[C@@H]1C[C@H]2[C@@H]3C[C@H](F)C4=CC(=O)C(Cl)=C[C@]4(C)[C@@]3(F)[C@@H](O)C[C@]2(C)[C@@]1(O)C(=O)CO [halometasone] | 14% | – | – |
| Cc1ncc([N+](=O)[O-])n1CC(C)O (stereo not drawn) [1-(2-methyl-5-nitro-imidazol-1-yl)-propan-2-ol] | 12% | – | – |
| Cc1nc2ccccn2c(=O)c1CCN1CCC(C(=O)c2ccc(F)cc2)CC1 [pirenperone] | 11% | – | – |
| COc1cc(CNC(=O)CCCC/C=C/C(C)C)ccc1O [capsaicin] | 62% | – | – |
| CN1C2CC(OC(=O)C(CO)c3ccccc3)CC1C1OC12 (stereo not drawn) [benzeneacetic acid, alpha-(hydroxymethyl)-, 9-methyl-3-oxa-9-azatricyclo[3,3,1,2,4]non-7-yl ester] | 67% | – | – |
| O=C(O)C(Cl)Cl [dichloroacetic acid] | 11.5% | – | – |
| Nc1nc(O)c2ncn(CCC(CO)CO)c2n1 [peniciclovir] | 11% | – | – |
| CC(Oc1c(Cl)cccc1Cl)C1=NCCN1 (stereo not drawn) [lofexidine] | 17% | – | – |
| CS(=O)(=O)c1ccc(C2=C(c3ccccc3)C(=O)OC2)cc1 [rofecoxib] | 12% | – | – |
| c1cncc([C@@H]2CCCN2)c1 [nornicotine] | 50% | – | – |
| gabexate mesylate | 20% | – | – |
| O=C1N(c2ccccc2)c2ccccc2C1(Cc1ccncc1)Cc1ccncc1 [2h-indol-2-one,1,3-dihydro-1-phenyl-3,3-bis(4-pyridinylmethyl)] | 22% | – | – |
| CC(=O)O[C@]1(C(C)=O)CC[C@H]2[C@@H]3C=C(C)C4=CC(=O)CC[C@]4(C)[C@H]3CC[C@@]21C [megestrol acetate] | 20% | – | – |
| medroxyprogesterone | 20% | – | – |
| O=[N+]([O-])c1cccc2cn[nH]c12 [7-nitroindazole] | 17% | – | – |
